According to ChEMBL document CHEMBL1641409, “Synthesis and SAR study of new phenylimidazole-pyrazolo[1,5-c]quinazolines as potent phosphodiesterase 10A inhibitors” (Bioorg Med Chem, 2011):

What was measured:
[1] = molecular target: Dual specificity calcium/calmodulin-dependent 3',5'-cyclic nucleotide phosphodiesterase 1B (Homo sapiens, UniProt Q01064); experiment: Inhibition of PDE1B
[2] = molecular target: cGMP-inhibited 3',5'-cyclic phosphodiesterase 3A (Homo sapiens, UniProt Q14432); experiment: Inhibition of PDE3A
[3] = molecular target: 3',5'-cyclic-AMP phosphodiesterase 4D (Homo sapiens, UniProt Q08499); experiment: Inhibition of PDE4D6
[4] = molecular target: cGMP-specific 3',5'-cyclic phosphodiesterase (Homo sapiens, UniProt O76074); experiment: Inhibition of PDE5A
[5] = molecular target: 3',5'-cyclic-AMP phosphodiesterase 7B (Homo sapiens, UniProt Q9NP56); experiment: Inhibition of PDE7B
Plasma [6] = experiment: Drug level in mouse plasma at 2 mg/kg, po; format: ADME, organism-based; set-up: dose 2 mg/kg, route oral; details: in vivo
Brain [7] = experiment: Drug level in mouse brain measured per gram of tissue at 2 mg/kg, po; format: ADME, organism-based; set-up: dose 2 mg/kg, route oral; details: in vivo
[8] = Ratio of drug level in brain to plasma in mouse at 2 mg/kg, po; format: ADME, organism-based; set-up: dose 2 mg/kg, route oral; details: read-out: BPR
[9] = molecular target: cAMP and cAMP-inhibited cGMP 3',5'-cyclic phosphodiesterase 10A (Homo sapiens, UniProt Q9Y233); experiment: Inhibition of human PDE10A expressed in Sf9 cells using [3H]cAMP by scintillation proximity assay
Plasma [10] = experiment: Drug level in mouse plasma at 5 mg/kg, sc; format: ADME, organism-based; set-up: dose 5 mg/kg, route subcutaneous; details: in vivo
Brain [11] = experiment: Drug level in mouse brain measured per gram of tissue at 5 mg/kg, sc; format: ADME, organism-based; set-up: dose 5 mg/kg, route subcutaneous; details: in vivo
[12] = Ratio of drug level in brain to plasma in mouse at 5 mg/kg, sc; format: ADME, organism-based; set-up: dose 5 mg/kg, route subcutaneous; details: read-out: BPR

Chain of cAMP and cAMP-inhibited cGMP 3',5'-cyclic phosphodiesterase 10A (Q9Y233 whole entry): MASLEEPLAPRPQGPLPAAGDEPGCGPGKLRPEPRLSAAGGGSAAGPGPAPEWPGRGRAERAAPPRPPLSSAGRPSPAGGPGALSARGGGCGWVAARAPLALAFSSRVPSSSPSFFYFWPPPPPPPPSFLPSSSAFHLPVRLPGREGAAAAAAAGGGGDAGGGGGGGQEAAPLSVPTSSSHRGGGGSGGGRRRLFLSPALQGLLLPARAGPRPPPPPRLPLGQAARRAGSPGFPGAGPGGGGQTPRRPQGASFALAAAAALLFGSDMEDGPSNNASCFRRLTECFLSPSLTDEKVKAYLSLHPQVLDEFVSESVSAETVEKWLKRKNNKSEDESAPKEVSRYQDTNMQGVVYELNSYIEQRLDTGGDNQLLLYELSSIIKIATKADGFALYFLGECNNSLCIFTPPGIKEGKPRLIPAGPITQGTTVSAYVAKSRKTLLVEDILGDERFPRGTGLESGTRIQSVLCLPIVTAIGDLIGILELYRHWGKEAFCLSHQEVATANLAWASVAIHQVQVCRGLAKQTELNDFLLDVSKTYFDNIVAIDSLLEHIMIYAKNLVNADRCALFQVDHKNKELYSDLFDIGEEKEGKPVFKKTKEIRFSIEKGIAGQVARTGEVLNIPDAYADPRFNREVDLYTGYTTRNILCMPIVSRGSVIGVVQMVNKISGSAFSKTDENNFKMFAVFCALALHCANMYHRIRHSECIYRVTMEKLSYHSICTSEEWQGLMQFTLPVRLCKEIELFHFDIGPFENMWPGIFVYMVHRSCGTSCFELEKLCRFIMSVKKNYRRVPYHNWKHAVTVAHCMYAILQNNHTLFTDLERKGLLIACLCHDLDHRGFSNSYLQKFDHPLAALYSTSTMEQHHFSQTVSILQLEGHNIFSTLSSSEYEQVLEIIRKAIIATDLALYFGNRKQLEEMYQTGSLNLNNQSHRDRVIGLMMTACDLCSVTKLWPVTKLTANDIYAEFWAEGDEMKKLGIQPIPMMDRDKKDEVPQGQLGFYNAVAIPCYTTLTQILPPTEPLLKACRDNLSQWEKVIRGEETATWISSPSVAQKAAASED
Chain of cGMP-inhibited 3',5'-cyclic phosphodiesterase 3A (Q14432 whole entry): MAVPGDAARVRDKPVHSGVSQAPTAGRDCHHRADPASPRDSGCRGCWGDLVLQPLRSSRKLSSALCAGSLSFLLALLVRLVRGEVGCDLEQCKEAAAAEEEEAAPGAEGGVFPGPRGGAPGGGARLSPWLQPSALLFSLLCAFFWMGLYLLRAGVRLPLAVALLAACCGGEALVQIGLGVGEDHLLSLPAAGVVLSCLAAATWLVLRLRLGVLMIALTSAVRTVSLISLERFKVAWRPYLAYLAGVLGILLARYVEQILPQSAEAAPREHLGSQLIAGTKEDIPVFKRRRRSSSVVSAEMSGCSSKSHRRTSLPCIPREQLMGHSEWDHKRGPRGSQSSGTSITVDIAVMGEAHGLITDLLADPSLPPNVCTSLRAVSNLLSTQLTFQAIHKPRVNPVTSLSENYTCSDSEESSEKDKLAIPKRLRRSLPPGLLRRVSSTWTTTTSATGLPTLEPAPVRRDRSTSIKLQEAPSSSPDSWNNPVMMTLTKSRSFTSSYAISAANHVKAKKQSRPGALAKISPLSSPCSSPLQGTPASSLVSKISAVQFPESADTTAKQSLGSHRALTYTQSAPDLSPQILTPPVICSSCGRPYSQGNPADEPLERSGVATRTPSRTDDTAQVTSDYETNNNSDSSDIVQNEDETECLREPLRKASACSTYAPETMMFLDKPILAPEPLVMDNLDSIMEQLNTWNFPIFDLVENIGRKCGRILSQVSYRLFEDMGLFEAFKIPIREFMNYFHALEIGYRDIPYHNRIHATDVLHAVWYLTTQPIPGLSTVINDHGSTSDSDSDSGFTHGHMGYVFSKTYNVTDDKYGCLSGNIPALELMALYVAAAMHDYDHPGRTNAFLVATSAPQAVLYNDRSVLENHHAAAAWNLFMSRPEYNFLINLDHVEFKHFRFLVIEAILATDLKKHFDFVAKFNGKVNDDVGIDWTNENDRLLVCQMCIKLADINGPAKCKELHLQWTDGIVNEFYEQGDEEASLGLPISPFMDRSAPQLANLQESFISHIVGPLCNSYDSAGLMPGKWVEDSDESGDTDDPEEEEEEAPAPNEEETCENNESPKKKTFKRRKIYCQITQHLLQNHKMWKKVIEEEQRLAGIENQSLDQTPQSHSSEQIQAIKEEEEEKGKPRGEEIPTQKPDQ
Chain of Dual specificity calcium/calmodulin-dependent 3',5'-cyclic nucleotide phosphodiesterase 1B (Q01064 whole entry): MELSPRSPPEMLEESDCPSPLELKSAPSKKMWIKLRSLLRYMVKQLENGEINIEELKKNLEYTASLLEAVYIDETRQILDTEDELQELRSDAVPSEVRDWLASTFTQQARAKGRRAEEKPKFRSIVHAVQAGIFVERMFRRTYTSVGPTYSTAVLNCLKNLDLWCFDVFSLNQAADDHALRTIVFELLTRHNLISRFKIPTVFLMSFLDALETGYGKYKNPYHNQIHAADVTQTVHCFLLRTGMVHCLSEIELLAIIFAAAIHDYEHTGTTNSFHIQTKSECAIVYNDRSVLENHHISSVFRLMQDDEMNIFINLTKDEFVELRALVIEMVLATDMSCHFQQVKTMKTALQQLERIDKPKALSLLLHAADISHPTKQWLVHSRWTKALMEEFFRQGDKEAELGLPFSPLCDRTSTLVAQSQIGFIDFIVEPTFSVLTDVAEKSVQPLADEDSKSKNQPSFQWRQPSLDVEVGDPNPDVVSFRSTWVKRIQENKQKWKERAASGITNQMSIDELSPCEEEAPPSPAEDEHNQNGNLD
Chain of 3',5'-cyclic-AMP phosphodiesterase 7B (Q9NP56 whole entry): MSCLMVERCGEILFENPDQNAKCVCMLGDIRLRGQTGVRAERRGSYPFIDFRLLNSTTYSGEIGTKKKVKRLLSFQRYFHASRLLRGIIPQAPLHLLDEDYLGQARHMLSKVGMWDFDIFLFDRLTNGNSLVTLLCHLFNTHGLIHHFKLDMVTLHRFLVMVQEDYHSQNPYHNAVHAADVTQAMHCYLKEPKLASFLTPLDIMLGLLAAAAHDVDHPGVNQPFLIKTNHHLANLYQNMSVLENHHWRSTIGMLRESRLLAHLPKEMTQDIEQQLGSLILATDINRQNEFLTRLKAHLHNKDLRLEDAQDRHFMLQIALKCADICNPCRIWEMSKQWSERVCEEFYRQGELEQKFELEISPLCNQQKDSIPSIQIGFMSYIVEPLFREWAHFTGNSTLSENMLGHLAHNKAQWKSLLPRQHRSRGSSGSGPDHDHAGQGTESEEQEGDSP
Chain of 3',5'-cyclic-AMP phosphodiesterase 4D (Q08499 whole entry): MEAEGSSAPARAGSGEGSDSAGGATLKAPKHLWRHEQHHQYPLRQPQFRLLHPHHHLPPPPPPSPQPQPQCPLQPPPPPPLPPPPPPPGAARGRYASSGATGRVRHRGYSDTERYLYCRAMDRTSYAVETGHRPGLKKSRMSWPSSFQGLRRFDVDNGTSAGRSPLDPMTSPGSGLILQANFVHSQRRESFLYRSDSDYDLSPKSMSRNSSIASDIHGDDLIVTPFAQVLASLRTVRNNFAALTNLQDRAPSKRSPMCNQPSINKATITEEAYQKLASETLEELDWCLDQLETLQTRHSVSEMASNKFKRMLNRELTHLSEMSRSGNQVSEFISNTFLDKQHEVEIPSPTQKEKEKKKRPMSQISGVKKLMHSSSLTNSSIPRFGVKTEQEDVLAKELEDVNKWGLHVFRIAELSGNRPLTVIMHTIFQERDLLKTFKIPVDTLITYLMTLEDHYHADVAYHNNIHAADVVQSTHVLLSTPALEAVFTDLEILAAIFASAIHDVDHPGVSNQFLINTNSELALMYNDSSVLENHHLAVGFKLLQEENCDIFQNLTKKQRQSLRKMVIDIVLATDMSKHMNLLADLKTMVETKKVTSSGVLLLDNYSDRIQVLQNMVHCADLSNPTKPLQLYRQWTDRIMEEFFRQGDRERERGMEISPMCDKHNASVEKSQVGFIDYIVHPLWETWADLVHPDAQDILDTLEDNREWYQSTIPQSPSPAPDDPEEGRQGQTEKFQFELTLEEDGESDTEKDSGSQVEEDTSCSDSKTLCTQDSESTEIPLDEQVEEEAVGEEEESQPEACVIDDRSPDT

IC50 [9] | SMILES | also measured
16 nM | Cc1ccc2nc(CCc3nc(-c4ccccc4)cn3C)n3nc(C)cc3c2c1 | IC50 [1]: 10000 nM; IC50 [2]: 10000 nM; IC50 [3]: 10000 nM; IC50 [4]: 10000 nM; IC50 [5]: 10000 nM
48 nM | Cc1cc2c3ccccc3nc(CSc3nc(-c4ccccc4)cn3C)n2n1 | –
73 nM | Cc1cc2c3cccc(Cl)c3nc(CSc3nc(-c4ccccc4)cn3C)n2n1 | –
110 nM | Cc1cc2c3cc(Cl)ccc3nc(CSc3nc(-c4ccccc4)cn3C)n2n1 | –
83 nM | COc1cccc2c1nc(CSc1nc(-c3ccccc3)cn1C)n1nc(C)cc21 | –
160 nM | Cc1cc2c3cccc(C)c3nc(CSc3nc(-c4ccccc4)cn3C)n2n1 | –
50 nM | Cc1cc2c3ccccc3nc(CCc3nc(-c4ccccc4)cn3C)n2n1 | Drug uptake (Plasma [10]): 150 ng/mL; Drug uptake (Brain [11]): 98 ng/mL; Kp [12]: 0.65
50 nM | Cc1cc2c3ccc(Cl)cc3nc(CCc3nc(-c4ccccc4)cn3C)n2n1 | –
16 nM | Cc1cc2c3cc(Cl)ccc3nc(CCc3nc(-c4ccccc4)cn3C)n2n1 | –
31 nM | COc1ccc2c(c1)nc(CCc1nc(-c3ccccc3)cn1C)n1nc(C)cc21 | –

Continued, compound first:

SMILES | IC50 [9] | also measured
Cc1nc2c3ccccc3nc(SCc3nc4ccccc4[nH]3)n2n1 | – | IC50 [1]: 10000 nM; IC50 [2]: 10000 nM; IC50 [3]: 10000 nM; IC50 [4]: 10000 nM; IC50 [5]: 10000 nM; Drug uptake (Plasma [6]): 629 ng/mL; Drug uptake (Brain [7]): < 25 ng/mL; Kp [8]: < 0.04
Cc1cc2c3ccc(Cl)cc3nc(CSc3nc(-c4ccccc4)cn3C)n2n1 | 130 nM | –
COc1ccc2c(c1)nc(CSc1nc(-c3ccccc3)cn1C)n1nc(C)cc21 | 100 nM | –
Cc1ccc2nc(CSc3nc(-c4ccccc4)cn3C)n3nc(C)cc3c2c1 | 76 nM | –
Cc1cc2c3cccc(Cl)c3nc(CCc3nc(-c4ccccc4)cn3C)n2n1 | 52 nM | –
COc1cccc2c1nc(CCc1nc(-c3ccccc3)cn1C)n1nc(C)cc21 | 37 nM | –
COc1ccc2nc(CCc3nc(-c4ccccc4)cn3C)n3nc(C)cc3c2c1 | 430 nM | –
Cc1cc2c3cccc(C)c3nc(CCc3nc(-c4ccccc4)cn3C)n2n1 | 78 nM | –
